Assay results from BindingDB's records for patent US20250250264 (Wuhan Humanwell Innovative Drug Research And Development …, 2025).
pIC50: −log10 of the molar value.

Target: T1, Kinesin-like protein KIF18A [1-467] (Human, UniProt Q8NI77)
T1 construct: 1-467
T1 sequence (Q8NI77 whole entry): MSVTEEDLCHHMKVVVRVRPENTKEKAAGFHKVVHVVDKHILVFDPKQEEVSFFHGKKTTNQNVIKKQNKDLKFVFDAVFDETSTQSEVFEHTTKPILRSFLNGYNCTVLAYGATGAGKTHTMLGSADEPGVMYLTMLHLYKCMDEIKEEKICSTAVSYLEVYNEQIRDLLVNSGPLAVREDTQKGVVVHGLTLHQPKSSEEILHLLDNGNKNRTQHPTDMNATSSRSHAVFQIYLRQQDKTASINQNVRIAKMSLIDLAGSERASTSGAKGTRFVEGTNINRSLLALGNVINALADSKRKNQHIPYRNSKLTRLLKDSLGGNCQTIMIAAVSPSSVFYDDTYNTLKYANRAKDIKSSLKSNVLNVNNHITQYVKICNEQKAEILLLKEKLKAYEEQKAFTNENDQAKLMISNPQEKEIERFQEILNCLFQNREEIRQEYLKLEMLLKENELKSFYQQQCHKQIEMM
Assay: Assay on Inhibition of KIF18A Enzymatic Activity
Description: The reaction system consisted of a test compound, the recombinant protein KIF18A (aa 1-467), ATP (Promega Inc), and an assay buffer. The test compound was prepared into a 0.5 mM stock solution using DMSO (Sigma Inc) and then serially diluted in DMSO. The assay buffer consisted of an aqueous solution of 15 mM Tris, 10 mM MgCl2 (Sigma Inc), 0.01% Pluronic F-68 (Life Technologies Inc), 1 μM paclitaxel (Cytoskeleton Inc), 30 μg/mL porcine tubulin (Cytoskeleton Inc), and 2% DMSO. The KIF18A protein (final concentration: 80 nM) and the compound at different concentrations (1 μL) were added to the prepared assay buffer (50 μL), and the mixture was incubated at room temperature for 15 min. Then, ATP (final concentration: 80 μM) was added to the reaction mixture, and the resulting mixture was incubated at room temperature for 3 h. After the reaction was completed, 5 μL of the ADP-Glo™ reagent and 2.5 μL of the reaction mixture were added to a 384-well plate (Grenier Inc). The resulting mixture was mixed homogeneously, then sealed by an aluminum foil sealing film, and incubated at room temperature in the dark for 40 min. […] After all reactions were completed, the luminescence values of the wells were read on a microplate reader (Molecular Device_SpectraMax Id5), and the inhibition ratios were calculated.

pIC50	Structure (SMILES)
8.52	Cc1cc(-c2nnc(-c3ccc(NS(=O)(=O)CCO)cc3N3CCC4(CC3)CC4)s2)nc(OCCC(F)(F)F)n1 [US20250250264, Compound I-99]
7.60	Cc1cc(-c2nnc(-c3ccc(NS(=O)(=O)CCO)cc3N3CCC4(CC3)CC4)o2)c(F)c(N2CCC(F)(F)CC2)n1 [US20250250264, Compound I-53]
